Source: PubChem BioAssay (NCI)
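Test compounds were applied to cells in 96-well plates for 48 hours at 5 doses. The concentration for 50% growth inhibition is given as GI50. TGI is the concentration that stops growth completely.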

How the values were obtained:
Assay in all cases: NCI anticancer screen, dose series, 48 h
[1] = test system: SN12C renal
[2] = test system: OVCAR-8 ovarian
[3] = test system: SK-MEL-5 melanoma
[4] = test system: HCC-2998 colon
[5] = test system: UACC-257 melanoma
[6] = test system: CCRF-CEM leukemia
[7] = test system: SK-OV-3 ovarian
[8] = test system: KM12 colon
[9] = test system: HCT-15 colon
[10] = test system: ACHN renal
[11] = test system: NCI-H226 lung
[12] = test system: MALME-3M melanoma
[13] = test system: COLO 205 colon
[14] = test system: SW-620 colon
[15] = test system: HT29 colon
[16] = test system: CAKI-1 renal
[17] = test system: RPMI-8226 leukemia
[18] = test system: SF-539 CNS
[19] = test system: IGROV1 ovarian
[20] = test system: SF-295 CNS
[21] = test system: MCF7 breast
[22] = test system: SF-268 CNS
[23] = test system: UACC-62 melanoma
[24] = test system: TK-10 renal
[25] = test system: T-47D breast
[26] = test system: SNB-19 CNS
[27] = test system: 786-0 renal
[28] = test system: OVCAR-3 ovarian
[29] = test system: OVCAR-4 ovarian
[30] = test system: NCI/ADR-RES ovarian
[31] = test system: A498 renal
[32] = test system: NCI-H23 lung
[33] = test system: MDA-MB-435
[34] = test system: SNB-75 CNS
[35] = test system: BT-549 breast
[36] = test system: MDA-MB-231 breast
[37] = test system: NCI-H460 lung
[38] = test system: HS 578T breast
[39] = test system: HCT-116 colon
[40] = test system: SK-MEL-28 melanoma
[41] = test system: K-562 leukemia
[42] = test system: HL-60(TB) leukemia
[43] = test system: NCI-H522 lung
[44] = test system: OVCAR-5 ovarian
[45] = test system: HOP-62 NSCLC
[46] = test system: M14 melanoma
[47] = test system: A549 NSCLC
[48] = test system: UO-31 renal
[49] = test system: RXF 393 renal
[50] = test system: U251 CNS
[51] = test system: DU-145 prostate
[52] = test system: MOLT-4 leukemia
[53] = test system: PC-3 prostate

SMILES: CC(C)OP(=O)(O)c1ncc(-c2ccc(C(F)(F)F)cc2)c(NC2CCCCCC2)n1
- GI50 [1]: > 100 µM
- TGI [1]: > 100 µM
- GI50 [2]: > 100 µM
- TGI [2]: > 100 µM
- GI50 [3]: 51 µM
- TGI [3]: > 100 µM
- GI50 [4]: > 100 µM
- TGI [4]: > 100 µM
- GI50 [5]: > 100 µM
- TGI [5]: > 100 µM
- GI50 [6]: > 100 µM
- TGI [6]: > 100 µM
- GI50 [7]: > 100 µM
- TGI [7]: > 100 µM
- GI50 [8]: 68.8 µM
- TGI [8]: > 100 µM
- GI50 [9]: > 100 µM
- TGI [9]: > 100 µM
- GI50 [10]: > 100 µM
- TGI [10]: > 100 µM
- GI50 [11]: > 100 µM
- TGI [11]: > 100 µM
- GI50 [12]: > 100 µM
- TGI [12]: > 100 µM
- GI50 [13]: > 100 µM
- TGI [13]: > 100 µM
- GI50 [14]: > 100 µM
- TGI [14]: > 100 µM
- GI50 [15]: > 100 µM
- TGI [15]: > 100 µM
- GI50 [16]: > 100 µM
- TGI [16]: > 100 µM
- GI50 [17]: 20.9 µM
- TGI [17]: > 100 µM
- GI50 [18]: > 100 µM
- TGI [18]: > 100 µM
- GI50 [19]: > 100 µM
- TGI [19]: > 100 µM
- GI50 [20]: > 100 µM
- TGI [20]: > 100 µM
- GI50 [21]: > 100 µM
- TGI [21]: > 100 µM
- GI50 [22]: > 100 µM
- TGI [22]: > 100 µM
- GI50 [23]: 49.7 µM
- TGI [23]: > 100 µM
- GI50 [24]: > 100 µM
- TGI [24]: > 100 µM
- GI50 [25]: 34.9 µM
- TGI [25]: > 100 µM
- GI50 [26]: > 100 µM
- TGI [26]: > 100 µM
- GI50 [27]: > 100 µM
- TGI [27]: > 100 µM
- GI50 [28]: 87 µM
- TGI [28]: > 100 µM
- GI50 [29]: 61.2 µM
- TGI [29]: > 100 µM
- GI50 [30]: > 100 µM
- TGI [30]: > 100 µM
- GI50 [31]: > 100 µM
- TGI [31]: > 100 µM
- GI50 [32]: > 100 µM
- TGI [32]: > 100 µM
- GI50 [33]: > 100 µM
- TGI [33]: > 100 µM
- GI50 [34]: > 100 µM
- TGI [34]: > 100 µM
- GI50 [35]: > 100 µM
- TGI [35]: > 100 µM
- GI50 [36]: > 100 µM
- TGI [36]: > 100 µM
- GI50 [37]: > 100 µM
- TGI [37]: > 100 µM
- GI50 [38]: > 100 µM
- TGI [38]: > 100 µM
- GI50 [39]: > 100 µM
- TGI [39]: > 100 µM
- GI50 [40]: > 100 µM
- TGI [40]: > 100 µM
- GI50 [41]: 55 µM
- TGI [41]: > 100 µM
- GI50 [42]: 38.2 µM
- TGI [42]: > 100 µM
- GI50 [43]: 38.5 µM
- TGI [43]: > 100 µM
- GI50 [44]: > 100 µM
- TGI [44]: > 100 µM
- GI50 [45]: 81.2 µM
- TGI [45]: > 100 µM
- GI50 [46]: > 100 µM
- TGI [46]: > 100 µM
- GI50 [47]: > 100 µM
- TGI [47]: > 100 µM
- GI50 [48]: > 100 µM
- TGI [48]: > 100 µM
- GI50 [49]: > 100 µM
- TGI [49]: > 100 µM
- GI50 [50]: 77.9 µM
- TGI [50]: > 100 µM
- GI50 [51]: > 100 µM
- TGI [51]: > 100 µM
- GI50 [52]: > 100 µM
- TGI [52]: > 100 µM
- GI50 [53]: 57.1 µM
- TGI [53]: > 100 µM
